According to patent publication US20100204155A1, “USE OF THE PEPTIDE SFLLR-OH AND MURAMYL DIPEPTIDE AS THERAPEUTIC AGENTS” (priority 2007, published 2010):
Where no end group is shown, it is not given here.

Experiments:
TNF-a spleen cells = assay: Th1/Th2 cytokine profiling assay: TNF-a; assay type: cell-based; conditions: 10 micrograms per ml; Ovalbumin-restimulated spleen cells of immunized Balb/c mice, 72 hours
From the text: (§1) The Balb/c mice (originated in 1923, it is a popular strain and is used in many different research disciplines. Also classified as an inbred from the production of 20 or more successive brother-sister matings, the Balb/c mouse is albino and small in size) were immunized on Days 1, 15, and 29 with Ovalbumin (Ovalbumin is the main protein found in egg white, commonly used to stimulate an immunological reaction in test animals) in PBS (5 micrograms/injection). On day 50, spleens of the mice were harvested (3 weeks after last boost with Ovalbumin). Cells were cultured (2×10^5/well in triplicate) and incubated with culture medium or test peptides—10 micrograms per ml—for 30 min. Thereafter, additional Ovalbumin was added to the cells at 10 micrograms/ml for in vitro restimulation of the cells. 72 hours later, cell supernatants were harvested and assayed using the Becton Dickinson Mouse Th1/Th2 Cytokine CBA Kit.

IL-5 spleen cells = assay: Th1/Th2 cytokine profiling assay: IL-5; assay type: cell-based; conditions: 10 micrograms per ml; Ovalbumin-restimulated spleen cells of immunized Balb/c mice, 72 hours
From the text: as §1

IL-4 spleen cells = assay: Th1/Th2 cytokine profiling assay: IL-4; assay type: cell-based; conditions: 10 micrograms per ml; Ovalbumin-restimulated spleen cells of immunized Balb/c mice, 72 hours
From the text: as §1

[1] = system: Primary Human endothelial cells (HUVEC); assay: Endothelial cell migration assay; assay type: cell-based; conditions: 10 micrograms per ml, 22 hours, combination peptide 1:peptide 2 0.95 mole:1.05 mole
Protocol: Thereafter, designated concentration of testing peptides—10 micrograms per ml—was added in duplicate wells.

HUVEC = assay: Endothelial tube formation assay; assay type: cell-based, human; conditions: 10 micrograms per ml, 20 hours, combination peptide 1:peptide 2 0.95 mole:1.05 mole
From the text: Positive control was vehicle only.

IL-2 spleen cells = assay: Th1/Th2 cytokine profiling assay: IL-2; assay type: cell-based; conditions: 10 micrograms per ml; Ovalbumin-restimulated spleen cells of immunized Balb/c mice, 72 hours
From the text: as §1

IFNγ spleen cells = assay: Th1/Th2 cytokine profiling assay: IFNγ; assay type: cell-based; conditions: 10 micrograms per ml; Ovalbumin-restimulated spleen cells of immunized Balb/c mice, 72 hours
From the text: as §1

[2] = system: hepatitis B virus (HBV) ayw strain; assay: HBV assay in HepG2-2.2.15 cells (TaqMan PCR of secreted HBV DNA); assay type: cell-based; conditions: 10 micrograms per ml, six days, HBV DNA by TaqMan PCR
From the text: HepG2-2.2.15 is a stable cell line containing the hepatitis B virus (HBV) ayw strain genome (ATCC Cat. No. CRL-11997). Antiviral compounds blocking any late step of viral replication such as transcription, translation, pregenome encapsidation, reverse transcription, particle assembly and release can be identified and characterized using this cell line. In this assay, an active compound will reduce the production of secreted HBV from cells, measured by utilizing real time quantitative PCR (TaqMan) assay to directly and accurately measure HBV DNA copies.
HepG2-2.2.15 cells were plated in 96-well microtiter plates. After 16-24 hours the confluent monolayer of HepG2-2.2.15 cells was washed and the medium was replaced with complete medium containing test peptides—10 micrograms per ml—in duplicate. […] Six days following the initial administration of the peptides, the cell culture supernatants was collected, treated with pronase and DNAse and then used in a real-time quantitative TaqMan PCR assay. The PCR-amplified HBV DNA was detected in real-time by monitoring increases in fluorescence signals that result from the exonucleolytic degradation of a quenched fluorescence probe molecule that hybridizes to the amplified HBV DNA. […] Antiviral activity was calculated from the reduction in HBV DNA levels (% virus control). […]

HCMV strain AD169 = assay: HCMV plaque formation assay in MRC-5 cells; conditions: for inhibition of HCMV plaque formation as compared to the virus control: 10 micrograms per ml, HCMV AD169, 7-10 days
HIV-1IIIB = assay: HIV-1 antiviral assay in CEM-SS cells (MTS); assay type: cell-based; conditions: positive controls

| Molecule | TNF-a spleen cells; TH1 response (% of control) (TNF-a spleen cells) | IL-5 spleen cells; TH2 response (% of control) (IL-5 spleen cells) | IL-4 spleen cells; TH2 response (% of control) (IL-4 spleen cells) | inhibition of the migration of human endothelial cells [1] | inhibition of the tube formation of endothelial cells (HUVEC) | IL-2 spleen cells (% of control) (IL-2 spleen cells) | IFNγ spleen cells; TH1 response (% of control) (IFNγ spleen cells) | inhibition of HBV replication as compared to the virus control infection [2] | inhibition of HCMV plaque formation as compared to the virus control (HCMV strain AD169) | antiviral activity of positive control compounds (HIV-1 assay) (HIV-1IIIB) | antiviral activity of positive control compound (HCMV assay) (HCMV strain AD169; positive control, HCMV AD169) |
| --- | --- | --- | --- | --- | --- | --- | --- | --- | --- | --- | --- |
| Ac-muramyl-Ala-D-Glu-NH2 [Peptide 2] | 134.0 % of control | 71.3 % of control | 94.5 % of control | did not inhibit | 27% | 0.0 % of control | 146.7 % of control | 54.4% | did not inhibit |  |  |
| Ser-Phe-Leu-Leu-Arg-OH (SFLLR-OH) [Peptide 1] | 121.8 % of control | 55.9 % of control | 0.0 % of control | 29% | 12% | 55.7 % of control | 129.1 % of control | 39.6% | did not inhibit |  |  |
| Cc1cn([C@H]2C[C@H](N=[N+]=[N-])[C@@H](CO)O2)c(=O)[nH]c1=O [AZT] |  |  |  |  |  |  |  |  |  | expected levels of antiviral activity |  |
| CC(C)(C)NC(=O)[C@@H]1CN(Cc2cccnc2)CCN1C[C@@H](O)C[C@@H](Cc1ccccc1)C(=O)N[C@H]1c2ccccc2C[C@H]1O [indinavir] |  |  |  |  |  |  |  |  |  | expected levels of antiviral activity |  |
| Nc1nc(O)c2ncn(COC(CO)CO)c2n1 [Ganciclovir, reference compound] |  |  |  |  |  |  |  |  |  |  | expected levels of antiviral activity |
